Measured values: US20040127455A1, “Muscosal immunoregulatory agent and its use” (KABUSHIKI Kaisha Hayashibara Seibutsu KK, priority 2000, published 2004)

How the values were obtained:
[1] = system: immunocompetent cells from the Peyer's patches; assay: IL-2, IFN-γ and IgA production by immunocompetent cells from the Peyer's patches of orally treated mice, LPS or Con A stimulation (Experiment 2); type: in vivo, female ddY mice; details: 0.1 g/kg oral, five times per week for four weeks, three days culture
Protocol: The effect on the response of immunocompetent cells with trehalose administration was evaluated by the production level of IL-2, IFN-γ, and IgA as a merkmal when the immunocompetent cells from the Peyer's patches stimulated with lipopolysaccharide (LPS) or Concanavalin A (Con A). Specifically, 0.1 g/kg mouse body weight of α,α-trehalose was administrated into female ddY mice through oral administration for four weeks with five times per a week, and non-α,α-trehalose administrated mice were used as a control. All the mice were anatomized and picked up all the Peyer's patches, which were then cut into pieces and treated with 0.2% (w/v) of collagenase solution at 37° C. for 30 minutes, passed through a cell strainer to remove non-digestive materials, and centrifuged to obtain a pellet. The pellet was suspended with a 45% (v/v) percol solution, and the suspension was put on a 75% (v/v) percol solution and centrifuged. Then, immunocompetent cells in an inter layer of percol were recovered and suspended in RPMI1640 medium with 10% of fetal calf serum and 5×10^−5 mol/l of 2-mercaptethanol. The resulting suspension was divided into three groups, and the two groups of which were mixed with 2 μg/ml of LPS or 5 μg/ml of Con A and adjusted a final concentration to 1×10^6 cells/ml. The resulting group as a control was not received with the above stimulation. They were incubated for three days in an incubator maintained at 37° C. and 5% CO2. Thereafter, the concentrations of the IL-2, IFN-γ and IgA concentration in the resulting cultures were measured by a conventional immunoassay method in Experiment 1.

[2] = system: immunocompetent cells from the Peyer's patches; assay: IFN-γ production by immunocompetent cells from the Peyer's patches of orally treated mice, LPS stimulation (Experiment 1); type: in vivo, male C3H/HeN mice; details: 1 g/kg oral, once per day for five days, two days culture, versus non-treated mice (FIG. 1)
Protocol: The effect on response of immunocompetent cells with trehalose administration was evaluated based on the production level of IFN-γ as a merkmal when the immunocompetent cells from the Peyer's patches were stimulated with lipopolysaccharide (LPS). IFN-γ is a cytokine which also improves the production of IgA as described above. α,α-Trehalose crystalline powder (registered trademark of “TREHA”, commercialized by Hayashibara Shoji Co. Ltd., Okayama, Japan) was dissolved in distilled water and sterilized, and then administrated into male C3H/HeN, five weeks aged mice (ten mice in each group) through oral pathway for five days by one time per day with a dosage of 1 g/kg mouse body weight of α,α-trehalose. Non-α,α-trehalose administrated mice as a control were administrated with an equal volume of distilled water. All the mice were bred under a clean environment, and freely fed with a sterilized solid fodder and water. […] The cells were incubated for two days in an incubator maintained at 37° C. and 5% CO2, after that, the IFN-γ concentration in each culture was measured by a conventional enzyme immunoassay. […]

OC[C@H]1O[C@H](O[C@H]2O[C@H](CO)[C@@H](O)[C@H](O)[C@H]2O)[C@H](O)[C@@H](O)[C@@H]1O [α,α-Trehalose, α,α-trehalose]
IFN-γ ([1]; no stimulation): Under 0.4 IU/ml | IL-2 ([1]; no stimulation): Under 50 pg | IgA ([1]; no stimulation): 719 ng/mL | IFN-γ ([1]; stimulation Con A 5 μg/ml): 6.4 IU/ml | IL-2 ([1]; stimulation Con A 5 μg/ml): Under 50 pg | IgA ([1]; stimulation Con A 5 μg/ml): 1671 ng/mL | IFN-γ ([1]; stimulation LPS 2 μg/ml): 4.5 IU/ml | IL-2 ([1]; stimulation LPS 2 μg/ml): 115 pg | IgA ([1]; stimulation LPS 2 μg/ml): 2305 ng/mL | IFN-γ production with no LPS stimulation ([2]; cells with 0 μg/ml LPS): tendency to decrease IFN-γ production | IFN-γ production under the LPS stimulation ([2]; cells with 0.2 or 1 μg/ml LPS): stronger tendency of increasing production of IFN-γ
